No end group written: not given here.
How the values were obtained:
[1] = system: S. aureus (ATCC35556); test: Survival of S. aureus on mouse skin in inflammation models; assay type: in vivo, Balb/c mice
From the text: All experiments involving live animals were done with the approval of the Institutional Animal Care and Use Guidelines of the University of California, San Diego (Protocol number: S09074). To investigate influences of distinct type of skin inflammation on the microbial community on the skin surface, we employed Th2 and Th17 inflammation models using mixed sex of Il4ra^−/− Balb/c (Jackson Laboratory, ME), Camp^−/− Balb/c,[4] Flg^ft/ft Balb/c or WT Balb/c mice (Jackson Laboratory) (6–8 weeks). Mice were housed under a specific pathogen-free condition with 12hr light/12hr dark cycle at 20–22°C and 30–70% humidity. Mice were randomly selected, the back skin was shaved, treated with depilatory cream, rinsed with water, cleaned with alcohol swab twice. To induce Th2 inflammation, MC903 (50μL of 90μM in ethanol) was applied to the back skin of WT, Il4ra^−/− or Camp^−/− mice every day for 14 days. Control mice received equal volume of ethanol. Alternatively, a sterile patch (2 × 2cm) with OVA solution (100 μg/100 μL PBS) or PBS was placed on tape-stripped dorsal skin of Flg^ft/ft Balb/c mice (6–8 weeks, mixed sex) and covered with Tegaderm wound dressing film for 8 days (the patch was replaced every 2 days). Mice received 3 times of 8-day OVA exposures by 2-week intervals. […] The dorsal skin was disinfected with alcohol swabs twice, applied with a 6-mm TSB agar disc containing 1 × 10^6 CFU of S. aureus (ATCC35556), and covered with Tegaderm wound dressing film for initial 24 h for quantitative bacterial application. […]
Bacteria were cultured in tryptic soy broth (TSB) at 37°C overnight, washed with PBS, and re-suspended in PBS at 1 × 10^6 CFU/5μL. […] The entire dorsal skin was then covered with wound dressing film for quantitative bacterial application and to avoid contamination.[18] […]
Survival of S. aureus and CoNS were measured on Baird-Parker agar for S. aureus or mannitol salt agar with egg yolk for total Staphylococcus species using easySpiral automatic diluter plater with exponential mode or circle mode and automatic colony counter (Interscience Inc., France). […]

[2] = system: AMP gene expression at wound edge; test: AMP response to partial-thickness skin wounds of mice treated by MC903; assay type: in vivo, Balb/c mice; conditions: MC903 or vehicle for 14 days, scratched by 18 gauge needle, biopsy at wound edge after 48 hours; Figure S3
From the text: All experiments involving live animals were done with the approval of the Institutional Animal Care and Use Guidelines of the University of California, San Diego (Protocol number: S09074). To investigate influences of distinct type of skin inflammation on the microbial community on the skin surface, we employed Th2 and Th17 inflammation models using mixed sex of Il4ra^−/− Balb/c (Jackson Laboratory, ME), Camp^−/− Balb/c,[4] Flg^ft/ft Balb/c or WT Balb/c mice (Jackson Laboratory) (6–8 weeks). Mice were housed under a specific pathogen-free condition with 12hr light/12hr dark cycle at 20–22°C and 30–70% humidity. Mice were randomly selected, the back skin was shaved, treated with depilatory cream, rinsed with water, cleaned with alcohol swab twice. To induce Th2 inflammation, MC903 (50μL of 90μM in ethanol) was applied to the back skin of WT, Il4ra^−/− or Camp^−/− mice every day for 14 days. […] The dorsal skin was disinfected with alcohol swabs twice, applied with a 6-mm TSB agar disc containing 1 × 10^6 CFU of S. aureus (ATCC35556), and covered with Tegaderm wound dressing film for initial 24 h for quantitative bacterial application. […] The mRNA expression of each gene was evaluated by qPCR and normalized to GAPDH expression (key resources table). page 4: Figure S3. […] P-value (*P<0.05 and **P<0.01) was calculated by two-tailed unpaired parametric t-test. […]

[3] = system: S. aureus (ATCC35556); test: Survival of S. aureus on mouse skin after topical steroid; assay type: in vivo, Balb/c WT mice; conditions: 0.1% triamcinolone topical at 24 and 32 h after S. aureus, read at 48 h; Figure 2L
Description: (§1) Back skin of Balb/c WT mice (8 weeks, female) were shaved and treated with MC903 as described above. After decontaminating the skin with alcohol swab twice, S. aureus (ATCC35556, 1 × 10^6 CFU) were applied with a TSB agar disc and whole back skin was covered with Tegaderm wound dressing film for 24 h. Tegaderm and the TSB disc were removed, and then 0.1% Triamcinolone (Perrigo) or Vaseline (50μg) were applied twice on back skin at 24 and 32 h after S. aureus were applied. Skin swab and biopsy was ob tained to measure S. aureus survival and immune response of the skin, respectively, at 48 h after bacteria application.
Survival of S. aureus and CoNS were measured on Baird-Parker agar for S. aureus or mannitol salt agar with egg yolk for total Staphylococcus species using easySpiral automatic diluter plater with exponential mode or circle mode and automatic colony counter (Interscience Inc., France). To determine total CoNS survival, CFUs on mannitol salt agar were subtracted by CFUs on Baird-Parker agar. To distinguish ShA9-WT and ShA9-ΔLanti mutant, CoNS colonies with pink color without halo were randomly picked from mannitol salt agar plate and conducted colony PCR with gene specific primers for ShA9-lantibiotic-α (key resources table).

[4] = system: Il17a, Il4, Il13, Camp, Defb14, Defb4 expression; test: qPCR of cytokine and AMP genes in mouse skin after topical steroid; assay type: in vivo, Balb/c WT mice; conditions: topical triamcinolone
Description: as §1
To determine expression of mRNA for Il4, Il13, Il17a, Tslp, Defb4, […] or Camp, 6mm punch biopsy was obtained from the mouse back skin. Skin biopsy was stored in 1mL of RNAlater solution at −80°C. Total RNA was extracted with PureLink RNA extraction kit (ThermoScientific Fisher) and one μg of total RNA was reversely transcribed with VERSO cDNA synthesis kit (ThermoScientific Fisher). Predeveloped qPCR assay primer sets (IDT oligo, listed in key resources table) were used for analyzing the expressions of these genes. The mRNA expression of each gene was evaluated by qPCR and normalized to GAPDH expression (key resources table).

[5] = system: ShA9-WT and ShA9-ΔLanti; test: Growth inhibition of ShA9-WT and ShA9-ΔLanti by human and murine AMPs (OD600); assay type: cell-based, Staphylococcus hominis; conditions: 90% RPMI/10% TSB, 30°C, 24 h, mean of duplicate technical replicates, Figure 4E
Description: Staphylococcus strains collected from normal skin from healthy subjects or lesional skin from AD patients were cultured in TSB overnight. Bacteria were washed with PBS and resuspended to 90% RPMI media and 10% TSB. Bacteria (1 × 10^5 CFU/mL) were incu bated with or without human AMPs (LL-37, hBD-2, hBD-3) or mouse cathelin-related AMP (CRAMP) in 90% RPMI media and 10% TSB (100 μL) in each well of a 96-well plate at 30°C for 24 h. Bacterial growth was assessed by measuring OD600. Minimal inhibitory concentration was defined as the lowest concentration which prevent visible bacterial growth (<5% of OD600 value of the con trol well).

In the case of `C=C1/C(=C\C=C2/CCC[C@]3(C)[C@@H]([C@H](C)/C=C/[C@@H](O)C4CC4)CC[C@@H]23)C[C@@H](O)C[C@@H]1O` [MC903], the “S. aureus survival on the skin after MC903 pretreatment relative to untreated mice” value ([1]; WT Balb/c mice, MC903 50 μL of 90 μM daily for 14 days, S. aureus 1 × 10^6 CFU for 48 h, Figure S1G) is reported as “increased” and the “AMP response to skin wounding after MC903” value [2] is reported as “suppressed”.

For `CC(C)Cn1cnc2c(N)nc3ccccc3c21` [imiquimod], the “Protection against S. aureus on imiquimod-treated skin” value ([1]; Flg^ft/ft mice, 5% imiquimod cream daily for 7 days, S. aureus for 48 hours, Figure S6) was “enhanced protection against S. aureus”.

For `C[C@]12C=CC(=O)C=C1CC[C@H]1[C@@H]3C[C@@H](O)[C@](O)(C(=O)CO)[C@@]3(C)C[C@H](O)[C@@]12F` [triamcinolone], the “Survival of S. aureus on MC903-pretreated mouse skin” value [3] was “decreased survival of S. aureus”, the “Il17a expression, healthy skin after S. aureus exposure” value ([4]; no MC903, Figure 2F) was “decreased” and the “Camp expression, healthy skin after S. aureus exposure” value ([4]; no MC903, Figure 2I) was “decreased”. For the same molecule, the “Defb14 expression, healthy skin after S. aureus exposure” value ([4]; no MC903, Figure 2J) was “decreased”, the “Il4 expression, skin with Th2 inflammation (MC903 and S. aureus)” value ([4]; Figure 2G) was “decreased” and the “Il13 expression, skin with Th2 inflammation (MC903 and S. aureus)” value ([4]; Figure 2H) was “decreased”. The “Camp expression, skin with Th2 inflammation (MC903 and S. aureus)” value ([4]; Figure 2I) was “increased”, the “Defb14 expression, skin with Th2 inflammation (MC903 and S. aureus)” value ([4]; Figure 2J) was “increased” and the “Defb4 expression, skin with Th2 inflammation (MC903 and S. aureus)” value ([4]; Figure 2K) was “increased”.

For CRAMP (GLL-33), the “Sensitivity of ShA9-WT to the AMP compared with ShA9-ΔLanti (growth inhibition)” value [5] was “more sensitive”.

For human beta-defensin 2 [hBD-2], the “Sensitivity of ShA9-WT to the AMP compared with ShA9-ΔLanti (growth inhibition)” value [5] was “more sensitive”.

With “human beta-defensin 3 (GIINTLQKYYCRVRGGRCAVLSCLPKEEQIGKCSTRGRKCCRRKK; ends and bridges not checked; cysteine pairing not given here; UniProt P81534 23-67, looked up) [hBD-3, human β-defensin, synthetic AMP (Peptide International)]” the “Sensitivity of ShA9-WT to the AMP compared with ShA9-ΔLanti (growth inhibition)” value [5] was “more sensitive”.

B1: ovalbumin (protein, UniProt P01012 2-386, looked up)
Ovalbumin: GSIGAASMEFCFDVFKELKVHHANENIFYCPIAIMSALAMVYLGAKDSTRTQINKVVRFDKLPGFGDSIEAQCGTSVNVHSSLRDILNQITKPNDVYSFSLASRLYAEERYPILPEYLQCVKELYRGGLEPINFQTAADQARELINSWVESQTNGIIRNVLQPSSVDSQTAMVLVNAIVFKGLWEKAFKDEDTQAMPFRVTEQESKPVQMMYQIGLFRVASMASEKMKILELPFASGTMSMLVLLPDEVSGLEQLESIINFEKLTEWTSSNVMEERKIKVYLPRMKMEEKYNLTSVLMAMGITDVFSSSANLSGISSAESLKISQAVHAAHAEINEAGREVVGSAEAGVDAASVSEEFRADHPFLFCIKHIATNAVLFFGRCVSP
notes: ovalbumin used for epicutaneous sensitization to induce Th2 inflammation
With B1 the “S. aureus survival on the skin after OVA sensitization relative to untreated mice” value ([1]; Flg^ft/ft Balb/c mice, 100 μg OVA in 100 μL PBS, 3 exposure cycles, S. aureus 1 × 10^6 CFU for 48 h, Figure S1M) was “increased colonization by S. aureus”.
